Values of other authors, collected in paper PMC11956011, “An Amazing 30-Year Journey around the DABO Family: A Medicinal Chemistry Lesson on a Versatile Class of Non-nucleoside HIV-1 Reverse Transcriptase Inhibitors” (Journal of Medicinal Chemistry, 2025).
pEC50, pIC50: −log10 of the molar value. Values after ≈ are worked out from the molar mass of the structure shown. Like-named read-outs stand apart in the source and are kept apart here.

How the values were obtained:
[1] = test system: EFV^R (K103R + V179D + P225H mutant); details: Fig 9
N119 (Y181C mutant) = details: for pEC50: Fig 9; for ED50: HIV-1 119: Fig 4; for Fold-resistance HIV-1 119 (ED50): Fig 4, in parentheses
A17 (Y181C+K103N) = details: Fig 9
HIV-1 NL4-3 wt = details: read-out: EC50: NL4-3 wt
[2] = test system: K103N HIV-1 mutant strain; details: for Fold-resistance K103N (EC50): Fig 10, in brackets
[3] = test system: Y188L HIV-1 mutant strain
[4] = test system: IRLL98 clinical isolate (K101Q, Y181C, G190A); details: Fig 9
[5] = test system: HIV-1 RT (WT, recombinant)
mock-infected cells = details: for CD50: Fig 4
malaria = test system: malaria; design: method as in PMID 31191911
HIV-1 = details: for SI: Fig 10
[6] = test system: Y181C HIV-1 mutant strain; details: for Fold-resistance Y181C (EC50): Fig 10, in brackets
[7] = test system: E138K HIV-1 mutant strain
Y181I HIV-1 RT = details: for Fold-resistance Y181I RT (ID50): Fig 10, in brackets
HIV-1IIIB = details: for ED50: HIV-1 IIIB: Fig 4
[8] = test system: clinical isolates KM018, TC-2, and WAN; details: read-out: EC50 against clinical isolates KM018, TC-2, and WAN
HBV = details: HBV-infected cells; read-out: HBV DNA IC50
L100I HIV-1 RT = details: for ID50: L100I: Fig 10; for Fold-resistance L100I RT (ID50): Fig 10, in brackets
[9] = test system: colon carcinoma HT-29 cells
Vero cells = test system: Vero cells; design: method as in doi:10.1016/0223-5234(92)90009-P; details: Fig 2
C8166 cells = test system: C8166 cells; design: method as in doi:10.1016/0223-5234(92)90009-P; details: Fig 2
[10] = test system: non-small-cell lung cancer HOP-92 cells; design: method as in PMID 21849221; details: at 10 μM
[11] = rats
[12] = more water-soluble

## Cc1cc(C)cc(Cc2nc(Sc3cccnc3)[nH]c(=O)c2C)c1 [compound 85]
[1]
  pEC50: 4.26
N119 (Y181C mutant)
  pEC50: 5.10
A17 (Y181C+K103N)
  pEC50: < 4.26

## COc1ccc(CSc2nc(O)c(C)c(Cc3c(F)cccc3F)n2)cc1 [compound 79]
HIV-1 NL4-3 wt; Fig 9
  pEC50: 7.59
[2]; Fig 9
  pEC50: 6.16
[3]; Fig 9
  pEC50: 5.00
[4]
  pEC50: 6.16
[5]; Fig 9
  ID50: WT: 7 nM
mock-infected cells; Fig 9
  CC50: > 64000 nM

## O=C(CCCCSc1nc(-c2ccc(-c3ccccc3)cc2)cc(=O)[nH]1)NO [compound 195]
malaria
  outcome in in vivo malaria mouse model: failed

## COc1cccc(Sc2nc(Cc3cc(C)cc(C)c3)c(C)c(=O)[nH]2)c1 [compound 84]
[1]
  pEC50: 4.00
N119 (Y181C mutant)
  pEC50: 5.70
A17 (Y181C+K103N)
  pEC50: < 4.00
mock-infected cells; Fig 9
  CC50: > 100000 nM

## Cc1cc(C)cc(Cc2nc(Sc3ccccc3)[nH]c(=O)c2C)c1 [compound 83]
[1]
  pEC50: 4.10
N119 (Y181C mutant)
  pEC50: 5.30
A17 (Y181C+K103N)
  pEC50: < 4.00
HIV-1; read-out: EC50: HIV-1 wt, Fig 9
  pEC50: 5.77
mock-infected cells; Fig 9
  CC50: > 100000 nM

## CCc1c(Cc2c(F)cccc2Cl)nc(SCC(=O)Nc2ccccc2)[nH]c1=O [A compound similar to 105–108]
[6]
  pEC50: 5.67
[7]
  pEC50: 5.69
HIV-1; read-out: EC50 against wild-type
  pEC50: 6.72

## COc1ccc(CCCSc2nc(O)c(C)c(Cc3c(Cl)cccc3Cl)n2)cc1 [compound 78]
HIV-1 NL4-3 wt; Fig 9
  pEC50: 9.36
[2]; Fig 9
  pEC50: < 6.00
[3]; Fig 9
  pEC50: < 6.00
[4]
  pEC50: 6.96
[5]; Fig 9
  ID50: WT: 37 nM
Y181I HIV-1 RT; Fig 9
  ID50: Y181I: 300 nM
mock-infected cells; Fig 9
  CC50: 1000 nM

## CCc1c(CC2CCCCC2)nc(SCC(=O)c2ccccc2)[nH]c1=O [compound 177]
HIV-1IIIB; read-out: EC50 anti-HIV-1 activity, further studies
  pEC50: 8.62
HIV-1; read-out: EC50 anti-HIV-1 activity, first report, C8166 cells
  pEC50: 10.92
HIV-1; read-out: EC50 vs WT HIV-1
  pEC50: 6.70
[8]
  pEC50: 7.38 to 8.06

## O=c1[nH]c(SC2O[C@H](CO)[C@H](O)[C@@H](O)[C@@H]2O)nc(Cc2ccccc2)c1Cc1ccccc1 (some centres unmarked) [compound 185]
HBV
  pIC50: 6.70

## COc1ccncc1Sc1nc(Cc2c(Cl)cccc2Cl)c(C)c(=O)[nH]1 [compound 82]
HIV-1 NL4-3 wt; Fig 9
  pEC50: 5.57
[2]; Fig 9
  pEC50: < 4.21
[6]; Fig 9
  pEC50: 5.19
[3]; Fig 9
  pEC50: < 4.21
[4]
  pEC50: 5.06
[5]; Fig 9
  ID50: WT: 3500 nM
Y181I HIV-1 RT; Fig 9
  ID50: Y181I: > 400000 nM
mock-infected cells; Fig 9
  CC50: > 61300 nM

## CCc1c(Cc2cc(C)cc(C)c2)nc2n(c1=O)COCCS2 [compound 26]
HIV-1IIIB
  ED50: HIV-1 IIIB: 1600 nM
N119 (Y181C mutant)
  ED50: HIV-1 119: 6300 nM
  Fold-resistance HIV-1 119 (ED50): 4
mock-infected cells
  CD50: > 100 µM

## CCc1c(Cc2c(F)cccc2F)nc(SCC(=O)c2ccccc2)[nH]c1=O [compound 104]
HIV-1 NL4-3 wt; Fig 10
  pEC50: 7.92
[2]; Fig 10
  pEC50: 5.89
[2]
  Fold-resistance K103N (EC50): 108
[6]; Fig 10
  pEC50: 6.70
[6]
  Fold-resistance Y181C (EC50): 17
[3]; Fig 10
  pEC50: < 4.25
[5]; Fig 10
  ID50: WT: 43 nM
Y181I HIV-1 RT; Fig 10
  ID50: Y181I: 820 nM
Y181I HIV-1 RT
  Fold-resistance Y181I RT (ID50): 19
L100I HIV-1 RT
  ID50: L100I: 5400 nM
  Fold-resistance L100I RT (ID50): 126
HIV-1
  SI: 4667
mock-infected cells; Fig 10
  CC50: 56000 nM

## CCc1c(Cc2c(Cl)cccc2Cl)nc(SCC(=O)c2ccccc2)[nH]c1=O [compound 101]
HIV-1 NL4-3 wt; Fig 10
  pEC50: 8.15
[2]; Fig 10
  pEC50: 5.92
[2]
  Fold-resistance K103N (EC50): 171
[6]; Fig 10
  pEC50: 7.34
[6]
  Fold-resistance Y181C (EC50): 7
[3]; Fig 10
  pEC50: 5.30
[3]; Fig 10, in brackets
  Fold-resistance Y188L (EC50): 714
[5]; Fig 10
  ID50: WT: 71 nM
Y181I HIV-1 RT; Fig 10
  ID50: Y181I: 330 nM
Y181I HIV-1 RT
  Fold-resistance Y181I RT (ID50): 5
L100I HIV-1 RT
  ID50: L100I: 3540 nM
  Fold-resistance L100I RT (ID50): 50
HIV-1
  SI: > 7429
mock-infected cells; Fig 10
  CC50: > 52000 nM

## COc1ccc(CSc2nc(Cc3c(Cl)cccc3Cl)c(C)c(=O)[nH]2)cc1 [compound 76]
HIV-1 NL4-3 wt; Fig 9
  pEC50: 8.15
[2]; Fig 9
  pEC50: 5.33
[3]; Fig 9
  pEC50: < 4.49
[4]
  pEC50: 7.33
[5]; Fig 9
  ID50: WT: 4 nM
Y181I HIV-1 RT; Fig 9
  ID50: Y181I: 150000 nM
mock-infected cells; Fig 9
  CC50: 32000 nM

## Cc1c(O)nc(Sc2ccc(Cl)cc2)nc1Cc1c(F)cccc1F [compound 81]
HIV-1 NL4-3 wt; Fig 9
  pEC50: 7.00
[2]; Fig 9
  pEC50: 5.10
[3]; Fig 9
  pEC50: < 4.18
[4]
  pEC50: < 4.18
[5]; Fig 9
  ID50: WT: 22000 nM
Y181I HIV-1 RT; Fig 9
  ID50: Y181I: > 400000 nM
mock-infected cells; Fig 9
  CC50: > 66100 nM

## COc1ccc(CCSc2nc(Cc3c(Cl)cccc3Cl)c(C)c(=O)[nH]2)cc1 [compound 77]
HIV-1 NL4-3 wt; Fig 9
  pEC50: > 9.85
[2]; Fig 9
  pEC50: 6.06
[3]; Fig 9
  pEC50: 5.16
[4]
  pEC50: 9.66
[5]; Fig 9
  ID50: WT: 26 nM
Y181I HIV-1 RT; Fig 9
  ID50: Y181I: 1500 nM
mock-infected cells; Fig 9
  CC50: > 57000 nM

## COc1cc(-c2nc(SCC(=O)c3ccc(Cl)cc3)[nH]c(=O)c2C#N)ccc1OCc1ccccc1 [compound 197]
[9]
  LC50: HT29: 10.1 mg/L (≈ 19.5 µM)
HePG2 cells
  LC50: HePG2: 20.9 mg/L (≈ 40.3 µM)
Breast cancer MCF7 cells
  LC50: MCF7: 1.9 mg/L (≈ 3.67 µM)

## Cc1c(O)nc(Sc2ccccc2)nc1Cc1c(F)cccc1F [compound 80]
HIV-1 NL4-3 wt; Fig 9
  pEC50: 7.05
[2]; Fig 9
  pEC50: 4.37
[3]; Fig 9
  pEC50: < 4.14
[4]
  pEC50: 4.78
[5]; Fig 9
  ID50: WT: 32000 nM
Y181I HIV-1 RT; Fig 9
  ID50: Y181I: > 400000 nM
mock-infected cells; Fig 9
  CC50: > 72700 nM

## CCCCOc1nc(Cc2ccc(OC)cc2)cc(=O)[nH]1 [compound 5]
Vero cells
  TD50 Vero: 100 µg/mL
C8166 cells
  TD50 C8166: 100 µg/mL

## CCc1c(Cc2cc(C)cc(C)c2)n2c(nc1=O)SCCOC2 [compound 25]
HIV-1IIIB
  ED50: HIV-1 IIIB: 600 nM
N119 (Y181C mutant)
  ED50: HIV-1 119: 19000 nM
  Fold-resistance HIV-1 119 (ED50): 32
mock-infected cells
  CD50: > 100 µM

## CCc1c(CC2CCCCC2)nc(SCC(=O)Nc2cc(F)cc(F)c2)[nH]c1=O [compound 211]
ZIKV
  ZIKV EC50 (Vero cells): inactive

## N#Cc1c(-c2c(Cl)cccc2Cl)nc(SCC(=O)c2ccc(Br)cc2)[nH]c1=O [compound 199]
[10]
  inhibitory effect toward HOP-92: > 50%

## O=c1[nH]c(SC2OC[C@H](O)[C@@H](O)[C@@H]2O)nc(Cc2ccccc2)c1Cc1ccccc1 (some centres unmarked) [compound 186]
HBV
  pIC50: 6.70

## Cc1cc(C)cc(Cc2nc(Sc3cccc4ccccc34)[nH]c(=O)c2C)c1 [compound 86]
[1]
  pEC50: 4.10
N119 (Y181C mutant)
  pEC50: 5.30
A17 (Y181C+K103N)
  pEC50: < 4.00
mock-infected cells; Fig 9
  CC50: > 100000 nM

## CCc1c(CC2CCCCC2)nc(SCc2cc(-c3ccc(O)cc3)[nH]n2)[nH]c1=O [compound 180]
[11]
  pharmacokinetic properties and bioavailability (in words): acceptable

## CCc1c(CC2CCCCC2)nc(SCC(=O)c2ccc(OP(=O)(OC)OC)cc2)[nH]c1=O [compound 179]
[12]
  Water solubility with respect to 177: 17 fold
HIV-1; more potent
  Potency against WT HIV-1 with respect to 177: 20 fold
mock-infected cells; more cytotoxic
  Cytotoxicity with respect to 177: 4.5 times

## CCc1c(CC2CCCCC2)nc(SCc2cc(-c3ccc(SC)cc3)[nH]n2)[nH]c1=O [compound 181]
[11]
  pharmacokinetic properties and bioavailability (in words): acceptable
